This is an account of results in ChEMBL document CHEMBL4813975, “Discovery and characterization of a novel glucose-6-phosphate dehydrogenase (G6PD) inhibitor via high-throughput screening” (Bioorg Med Chem Lett, 2021).

The IC50 is the midpoint of a concentration-inhibition curve. By Kd is commonly meant the free concentration of one partner at which half of the binding sites on the other are occupied at equilibrium, for simple one-to-one binding. One may read the Ki as the equilibrium dissociation constant of an inhibitor or competing ligand from its target. What is called EC50 is the concentration giving half of the maximal effect. A low value points to higher potency in that assay.

The target of test [1] is T1, Glucose-6-phosphate 1-dehydrogenase (Homo sapiens, UniProt P11413). The test is described as follows: Inhibition of G6PD (unknown origin) assessed as reduction in 6-phospho-D-glucono-1,5-lactone and NADPH production using glucose-6-phosphate and NADP+ as substrate incubated for 15 mins by UV absorption photometry assay.
T1 sequence (P11413 whole entry): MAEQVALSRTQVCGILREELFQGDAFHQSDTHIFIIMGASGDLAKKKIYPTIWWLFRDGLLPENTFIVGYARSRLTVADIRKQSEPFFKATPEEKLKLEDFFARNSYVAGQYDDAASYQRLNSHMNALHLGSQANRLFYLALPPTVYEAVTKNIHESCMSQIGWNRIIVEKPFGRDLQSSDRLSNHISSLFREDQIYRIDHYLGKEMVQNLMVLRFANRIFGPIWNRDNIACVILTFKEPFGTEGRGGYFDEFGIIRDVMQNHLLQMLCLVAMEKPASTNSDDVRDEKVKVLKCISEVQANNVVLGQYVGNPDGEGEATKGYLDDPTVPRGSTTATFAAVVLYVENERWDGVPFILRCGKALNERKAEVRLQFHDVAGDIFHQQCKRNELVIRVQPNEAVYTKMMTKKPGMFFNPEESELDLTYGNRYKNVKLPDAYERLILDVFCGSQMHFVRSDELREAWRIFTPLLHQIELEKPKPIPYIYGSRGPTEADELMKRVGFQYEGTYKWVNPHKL
The target in test [2] is T1, Glucose-6-phosphate 1-dehydrogenase. The test is described as follows: Binding affinity to G6PD (unknown origin) assessed as equilibrium dissociation constant by surface plasmon resonance assay.
Test [3] has the same target. Description: Non-competitive inhibition of G6PD (unknown origin) using varying concentrations of G6P and NADP+ as substrate by Michaelis-Menten analysis.
Test [4] has as its system OVCAR-3. Description: Inhibition of colony formation in human OVCAR-3 cells overexpressing G6PD incubated for 14 days by crystal violet staining based assay. In kind it is functional, cell-based.
Test [5] has as its target T1, Glucose-6-phosphate 1-dehydrogenase. Description: Inhibition of G6PD in human OVCAR-3 cells assessed as thermal instability of the enzyme by CETSA analysis. The format is cell-based.
Test [6] has the same target. The test is described as follows: Competitive inhibition of G6PD (unknown origin) using glucose-6-phosphate and varying concentrations of NADP+ as substrate by Michaelis-Menten analysis.
Test [7] has the same target. The test is described as follows: Non-competitive inhibition of G6PD (unknown origin) using glucose-6-phosphate and varying concentrations of NADP+ as substrate by Michaelis-Menten analysis.
The target is the same in test [8]. The test is described as follows: Competitive inhibition of G6PD (unknown origin) using varying concentrations of G6P and NADP+ as substrate by Michaelis-Menten analysis.
Test [9] has the same target. Description: Reversible inhibition of G6PD (unknown origin) using glucose-6-phosphate and NADP+ as substrate measured after dilution of 12XIC50 to 0.6XIC50 by dilution based analysis.

Active and inactive are the calls of the source. No cut-off for these calls is given here.

For the compound `O=c1c(O)c(-c2ccc(O)c(O)c2)oc2cc(O)cc(O)c12`, the IC50 in test [1] was determined as 31 µM.

With `O=C(/C=C/c1ccc(O)c(O)c1)O[C@@H]1C[C@](O)(C(=O)O)C[C@@H](OC(=O)/C=C/c2ccc(O)c(O)c2)[C@H]1O`, the IC50 in test [1] turned out to be 37.7 µM.

In the case of `OC[C@H]1O[C@@H](Oc2cc(O)cc(/C=C/c3ccc(O)cc3)c2)[C@H](O)[C@@H](O)[C@@H]1O` [PICEID], in [1], the IC50 worked out at 74.5 µM.

In the case of `C[C@]12CC[C@H](O)CC1=CC[C@@H]1[C@@H]2CC[C@]2(C)C(=O)CC[C@@H]12` [PRASTERONE], the IC50 in [1] turned out to be 12.5 µM.

Regarding `COc1cc(O)c2c(c1)oc(=O)c1c3cc(O)c(O)cc3oc21` [WEDELOLACTONE], the Kd in [2] was 3.64 µM. Also, the Ki was 9.94 µM in test [3], 1190 nM in [6], 5.79 µM in test [7] and 2540 nM in test [8]. In addition, the IC50 in test [1] worked out at 5.18 µM. In test [4] (OVCAR-3, 336 h), this compound showed an EC50 of 10.6 µM. Also, the inhibition entry in [4] (time 14.0 day) was “Dose-Dependent Effect”. Besides, the inhibition result in test [5] and in test [9] was “Active” in each case.
